Assays:
[1] = test system: gonadal fat pads of C57BL/6 adult male mice, a pro-fibrotic mouse model; test: 28-day implantation of functionalized PDMS disks on gonadal fat pads (IP space); gross fibrosis and histology; type: in vivo; conditions: 28 days
Protocol: PDMS disk/pillar preparation & functionalization. PDMS implants were made with SYLGARD™ 184 silicone elastomer by mixing the base and curing agent in a ratio of 10:1 and letting sit 24 hours at room temperature in either sheets or pillar molds. The PDMS sheets were punched with 4 mm biopsy punches to make disks, or the pillar were removed from their molds, and plasma cleaned under general atmospheric air on each side for 1 minute at high Rf, 700-800 torr. Samples were then functionalized by one of two methods: Method 1) for the methacryloyl modified Z2-Y12 and Z2-Y12 Analog, the PDMS disks were incubating in a solution of DMSO:ACN (Sigma) (60:40) overnight under nitrogen gas flow. For the methacryloyl modified Z1-Y15 (0.2M), methacryloyl Z1-Y15 was added to DMSO (0.3 w/v %) and heated to 80° C. Separately Milli-Q H2O was heated to 80° C. and added to the reaction dropwise for a final mixture of 1:4 DMSO:Milli-Q H2O. The mixture was left stirring under reduced heat 40-50° C. under high stirring conditions ([…]). PDMS sheets were added to this mixture and allowed to stir overnight under Nitrogen gas. Disks were submerged in 1×PBS and left to soak for 10 minutes. Samples were then washed 3× with 1×PBS after overnight functionalization. […] Functionalized disks were maintained at −80° C. until they were ready for implantation. […]

[2] = test system: brain of mice; test: 2-week PDMS pillar implantation in mouse brain; histology and immunohistochemistry; type: in vivo; conditions: PDMS pillars, 2 weeks
Protocol: Mouse Brain Implantation. C57BL/6J mice were allowed to acclimate for greater than one week prior to surgical manipulation. After the acclimation period, 24 hours prior to surgery, the mice were premedicated with 5 mg/kg meloxicam SC for analgesia. 30 minutes prior to surgery, the mice were given 30 mg/kg trimethoprim-sulfamethoxazole PO for antimicrobial prophylaxis. The mice were then anesthetized with 3% isoflurane with 1 L/min O2 in an induction chamber and then transferred to a nose cone with 1-3% inhaled isoflurane with 0.5 L/min O2 for maintenance anesthesia. Depth of anesthesia was monitored testing for no response to toe pinch throughout surgery. Immediately following induction, the mouse was placed on a warming pad and maintained on the warming pad throughout surgery. The fur on the mouse head was trimmed with an electric razor and topical anesthetic with 2.5% lidocaine/prilocaine cream was applied for several minutes. The mice were then given 5 mg/kg meloxicam SC and 0.1 mg/kg buprenorphine SC for analgesia. The trimmed mouse scalp was then scrubbed with 7.5% povidone-iodine solution. Sterile neoprene surgical gloves (Medichoice) and sterile autoclaved instruments were used to maintain sterile technique throughout surgery. […]

SMILES: NCCOCCOCCOCCn1cc(CN2CCS(=O)(=O)CC2)nn1 [Z1]
- adherent peripheral tissue on disks (FBR and fibrosis) ([1]; PDMS disks, gonadal fat pads): virtually no adherent peripheral tissue was found
- interfacial fibrotic layer on the implant surface (histology) ([1]; tissue around PDMS implants): prevented the development of an interfacial fibrotic layer
- accumulation/migration of immune cells at the implant site (immunohistochemistry) [2]: not observed
- fibrotic strands of cells at the implant site (histology) [2]: absent

— patent publication US20250281672A1, “IDENTIFICATION OF PRO- AND ANTI-INFLAMMATORY LIPIDS RELATING TO IMMUNE RESPONSE TO MEDICAL IMPLANTS” (William Marsh Rice University, priority 2021, published 2025)
